Measured values as given in ChEMBL document CHEMBL5465560, “Selectivity Literature for EUbOPEN Chemogenomic Library” (2024).

Experiments:
[1] = target: T1, Mitogen-activated protein kinase 13 (Homo sapiens) (UniProt O15264); assay: Selectivity interaction (KinomeScan (DiscoverX)) EUB0000695a MAPK13; details: at 100 nM
T1 sequence (whole entry): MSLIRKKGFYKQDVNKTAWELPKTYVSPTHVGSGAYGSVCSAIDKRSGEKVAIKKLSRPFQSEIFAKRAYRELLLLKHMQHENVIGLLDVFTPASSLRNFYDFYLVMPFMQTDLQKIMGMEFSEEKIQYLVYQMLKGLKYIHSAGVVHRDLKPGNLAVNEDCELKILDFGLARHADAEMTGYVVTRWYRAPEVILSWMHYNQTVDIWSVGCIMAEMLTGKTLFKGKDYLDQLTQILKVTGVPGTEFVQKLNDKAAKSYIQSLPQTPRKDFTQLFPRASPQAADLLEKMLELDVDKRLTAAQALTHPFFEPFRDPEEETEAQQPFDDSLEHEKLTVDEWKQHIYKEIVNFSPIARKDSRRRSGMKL

[2] = target: T2, Histone-lysine N-methyltransferase SUV39H1 (Homo sapiens) (UniProt O43463); assay: Selectivity interaction (Methyltransferase screen (radiometric assays, panel of 8 PRMTs, 21 protein lysine methyltransferases, 3 DNA methyltransferases, and one RNA methyltransferase)) EUB0000272b SUV39H1
T2 sequence (whole entry): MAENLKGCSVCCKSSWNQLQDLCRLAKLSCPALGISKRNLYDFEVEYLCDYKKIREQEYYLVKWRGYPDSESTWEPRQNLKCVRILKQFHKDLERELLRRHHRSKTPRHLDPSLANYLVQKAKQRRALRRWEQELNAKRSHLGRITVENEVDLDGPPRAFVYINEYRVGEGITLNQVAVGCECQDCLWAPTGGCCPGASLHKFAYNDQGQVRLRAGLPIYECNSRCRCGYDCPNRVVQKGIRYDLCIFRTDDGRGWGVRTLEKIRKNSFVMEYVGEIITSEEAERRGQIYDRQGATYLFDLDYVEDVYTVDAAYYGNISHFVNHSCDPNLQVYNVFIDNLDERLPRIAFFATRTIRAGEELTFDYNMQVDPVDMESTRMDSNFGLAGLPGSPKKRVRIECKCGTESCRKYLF

[3] = target: Wee1-like protein kinase (Homo sapiens) (UniProt P30291); assay: Selectivity interaction (KinomeScan (DiscoverX)) EUB0000666a WEE1; details: at 10 µM
[4] = target: T3, Serine/threonine-protein kinase ULK2 (Homo sapiens) (UniProt Q8IYT8); assay: Selectivity interaction (KinomeScan (DiscoverX)) EUB0001049a ULK2; details: at 1 µM
T3 sequence (whole entry): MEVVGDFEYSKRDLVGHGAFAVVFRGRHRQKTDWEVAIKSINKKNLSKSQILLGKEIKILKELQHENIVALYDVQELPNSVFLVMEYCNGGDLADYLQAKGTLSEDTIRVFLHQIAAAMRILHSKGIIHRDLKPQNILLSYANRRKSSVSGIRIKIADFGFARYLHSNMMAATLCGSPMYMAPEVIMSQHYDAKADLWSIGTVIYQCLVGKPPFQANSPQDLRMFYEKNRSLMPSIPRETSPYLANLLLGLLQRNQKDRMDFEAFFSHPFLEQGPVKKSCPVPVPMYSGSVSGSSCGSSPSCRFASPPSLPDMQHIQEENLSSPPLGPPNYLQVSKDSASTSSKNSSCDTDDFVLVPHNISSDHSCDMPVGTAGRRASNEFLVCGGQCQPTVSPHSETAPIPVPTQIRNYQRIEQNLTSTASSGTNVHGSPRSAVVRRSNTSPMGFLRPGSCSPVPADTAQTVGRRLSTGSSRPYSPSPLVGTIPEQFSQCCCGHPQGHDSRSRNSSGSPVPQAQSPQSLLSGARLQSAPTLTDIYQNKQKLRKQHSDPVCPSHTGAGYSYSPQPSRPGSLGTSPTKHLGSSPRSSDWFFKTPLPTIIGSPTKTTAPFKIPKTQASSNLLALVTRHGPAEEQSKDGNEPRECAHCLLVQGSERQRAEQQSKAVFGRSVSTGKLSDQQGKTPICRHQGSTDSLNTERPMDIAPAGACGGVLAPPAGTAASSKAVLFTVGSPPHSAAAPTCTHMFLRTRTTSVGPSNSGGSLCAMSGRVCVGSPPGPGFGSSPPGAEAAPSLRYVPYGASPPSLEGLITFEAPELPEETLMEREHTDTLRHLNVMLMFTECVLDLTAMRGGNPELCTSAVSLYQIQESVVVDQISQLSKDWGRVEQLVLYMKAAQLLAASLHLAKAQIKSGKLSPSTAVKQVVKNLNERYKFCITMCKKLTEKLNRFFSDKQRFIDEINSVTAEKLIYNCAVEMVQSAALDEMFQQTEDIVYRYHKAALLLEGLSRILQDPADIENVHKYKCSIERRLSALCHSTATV

[5] = target: Mitogen-activated protein kinase kinase kinase 9 (Homo sapiens) (UniProt P80192); assay: Selectivity interaction (KinomeScan (DiscoverX)) EUB0000618a MAP3K9; details: at 10 µM
[6] = target: T4, Serine/threonine-protein kinase DCLK3 (Homo sapiens) (UniProt Q9C098); assay: Selectivity interaction (KinomeScan (DiscoverX)) EUB0000655a DCLK3; details: at 10 µM
T4 sequence (whole entry): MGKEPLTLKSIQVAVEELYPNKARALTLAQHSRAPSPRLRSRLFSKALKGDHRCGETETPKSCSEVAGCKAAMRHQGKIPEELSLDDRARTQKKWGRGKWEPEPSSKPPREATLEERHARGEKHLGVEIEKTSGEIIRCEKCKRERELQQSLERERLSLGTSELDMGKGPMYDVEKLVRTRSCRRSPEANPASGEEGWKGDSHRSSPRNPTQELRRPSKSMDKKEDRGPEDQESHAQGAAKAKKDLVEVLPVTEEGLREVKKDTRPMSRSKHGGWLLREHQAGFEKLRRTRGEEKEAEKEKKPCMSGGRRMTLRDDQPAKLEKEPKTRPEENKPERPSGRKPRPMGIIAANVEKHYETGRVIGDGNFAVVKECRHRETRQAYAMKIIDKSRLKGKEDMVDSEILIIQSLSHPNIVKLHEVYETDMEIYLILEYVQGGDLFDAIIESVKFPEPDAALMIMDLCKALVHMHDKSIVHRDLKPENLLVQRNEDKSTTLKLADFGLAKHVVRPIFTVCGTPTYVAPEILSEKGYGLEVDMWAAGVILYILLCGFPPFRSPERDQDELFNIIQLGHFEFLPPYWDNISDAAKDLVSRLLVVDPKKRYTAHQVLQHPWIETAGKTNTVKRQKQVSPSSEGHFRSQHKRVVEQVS

Chain of Mitogen-activated protein kinase kinase kinase 9 (Homo sapiens) (P80192 whole entry, looked up): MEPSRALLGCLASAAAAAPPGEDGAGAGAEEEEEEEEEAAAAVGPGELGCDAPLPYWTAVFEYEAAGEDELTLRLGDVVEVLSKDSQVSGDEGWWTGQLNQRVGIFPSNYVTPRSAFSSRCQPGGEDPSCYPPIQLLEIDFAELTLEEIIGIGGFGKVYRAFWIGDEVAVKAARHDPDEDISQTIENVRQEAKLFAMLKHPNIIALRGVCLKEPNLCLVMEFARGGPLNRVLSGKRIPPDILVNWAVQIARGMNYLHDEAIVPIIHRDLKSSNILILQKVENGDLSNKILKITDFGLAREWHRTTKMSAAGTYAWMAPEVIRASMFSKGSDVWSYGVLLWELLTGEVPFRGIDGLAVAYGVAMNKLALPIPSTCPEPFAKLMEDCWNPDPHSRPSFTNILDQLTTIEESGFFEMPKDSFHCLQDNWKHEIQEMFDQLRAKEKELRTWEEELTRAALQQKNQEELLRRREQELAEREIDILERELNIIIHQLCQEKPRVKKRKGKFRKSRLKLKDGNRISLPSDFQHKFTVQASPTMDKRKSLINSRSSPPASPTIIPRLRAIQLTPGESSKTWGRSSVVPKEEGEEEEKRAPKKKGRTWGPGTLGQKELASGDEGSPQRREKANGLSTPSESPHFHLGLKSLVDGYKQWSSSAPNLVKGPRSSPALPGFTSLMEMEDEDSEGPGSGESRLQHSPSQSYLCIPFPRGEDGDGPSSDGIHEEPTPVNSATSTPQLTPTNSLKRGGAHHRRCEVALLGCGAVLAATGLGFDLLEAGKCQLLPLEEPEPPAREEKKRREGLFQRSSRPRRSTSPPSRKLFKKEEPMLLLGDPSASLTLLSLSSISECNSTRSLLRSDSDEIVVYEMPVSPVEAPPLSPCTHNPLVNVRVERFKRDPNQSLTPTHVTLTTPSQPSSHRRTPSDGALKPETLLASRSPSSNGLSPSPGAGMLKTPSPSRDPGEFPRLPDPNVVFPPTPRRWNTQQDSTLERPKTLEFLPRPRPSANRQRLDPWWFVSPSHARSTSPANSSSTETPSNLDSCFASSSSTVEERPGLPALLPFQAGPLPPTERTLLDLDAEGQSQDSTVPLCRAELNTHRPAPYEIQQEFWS
Chain of Wee1-like protein kinase (Homo sapiens) (P30291 whole entry, looked up): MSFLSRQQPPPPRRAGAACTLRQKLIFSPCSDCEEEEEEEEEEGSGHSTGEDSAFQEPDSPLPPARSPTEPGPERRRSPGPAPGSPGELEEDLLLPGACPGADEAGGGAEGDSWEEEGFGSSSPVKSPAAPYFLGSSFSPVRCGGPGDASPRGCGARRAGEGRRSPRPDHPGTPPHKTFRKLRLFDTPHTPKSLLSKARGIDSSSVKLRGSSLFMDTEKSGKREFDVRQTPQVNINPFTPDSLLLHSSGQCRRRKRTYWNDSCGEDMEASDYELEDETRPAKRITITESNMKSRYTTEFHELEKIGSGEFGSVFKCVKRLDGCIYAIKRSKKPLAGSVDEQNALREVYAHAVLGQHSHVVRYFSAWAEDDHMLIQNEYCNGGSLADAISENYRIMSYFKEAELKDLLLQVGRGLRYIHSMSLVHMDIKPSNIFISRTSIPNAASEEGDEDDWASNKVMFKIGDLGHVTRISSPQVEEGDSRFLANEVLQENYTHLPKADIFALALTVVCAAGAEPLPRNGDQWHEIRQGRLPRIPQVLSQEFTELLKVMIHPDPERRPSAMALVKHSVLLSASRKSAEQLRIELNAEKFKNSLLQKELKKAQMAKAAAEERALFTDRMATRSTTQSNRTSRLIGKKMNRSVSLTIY

**Q.** How did the % of control [1] turn out when Cc1cc(F)c(C(=O)Nc2cccc(-c3nncn3C(C)C)n2)cc1-n1cnc(C2CC2)c1 was run?
**A.** Its % of control is 100%.

**Q.** Which results are given for Cc1cc(C)cc([C@H]2c3cc(C)ccc3NC(=O)CN2C(=O)c2ccc(Br)s2)c1?
**A.** % of activity ([2]; at 1 µM): 100%; % of activity ([2]; at 10 µM): 96.7%

**Q.** With O=C(NOC[C@H](O)CO)c1ccc(F)c(F)c1Nc1ccc(I)cc1F as the compound, how does the % of control [3] read?
**A.** The % of control was 67%.

**Q.** For COc1cc(Nc2nc(C)cc(-c3cnn4nc(OC)ccc34)n2)cc(C(F)(F)F)c1, which % of control [4] is on record?
**A.** Its % of control is 92%.

**Q.** O[C@H]1CC[C@H](Nc2ncc3nc(Nc4c(F)cc(F)cc4F)n([C@H]4CCOC4)c3n2)CC1 was tested. Which % of control [5] did it give?
**A.** Its % of control is 100%.

**Q.** CN(C)CCOc1ccc(-c2nc(-c3ccncc3)c(-c3ccc4c(c3)CC/C4=N\O)[nH]2)cc1 was tested. Which % of control [6] did it give?
**A.** Its % of control is 89%.
